Our source for the IC50 values is patent US12459967B2, “Modulators of 5′-nucleotidase, ecto and the use thereof” (Arcus Biosciences, Inc., priority 2016, dated 2025).

The test has as its target T1, human CD73 (Homo sapiens, UniProt P21589).
T1 construct: host or cells: CHO-K1 (suspension pool CHO-CD73)
T1 sequence (P21589 27-549): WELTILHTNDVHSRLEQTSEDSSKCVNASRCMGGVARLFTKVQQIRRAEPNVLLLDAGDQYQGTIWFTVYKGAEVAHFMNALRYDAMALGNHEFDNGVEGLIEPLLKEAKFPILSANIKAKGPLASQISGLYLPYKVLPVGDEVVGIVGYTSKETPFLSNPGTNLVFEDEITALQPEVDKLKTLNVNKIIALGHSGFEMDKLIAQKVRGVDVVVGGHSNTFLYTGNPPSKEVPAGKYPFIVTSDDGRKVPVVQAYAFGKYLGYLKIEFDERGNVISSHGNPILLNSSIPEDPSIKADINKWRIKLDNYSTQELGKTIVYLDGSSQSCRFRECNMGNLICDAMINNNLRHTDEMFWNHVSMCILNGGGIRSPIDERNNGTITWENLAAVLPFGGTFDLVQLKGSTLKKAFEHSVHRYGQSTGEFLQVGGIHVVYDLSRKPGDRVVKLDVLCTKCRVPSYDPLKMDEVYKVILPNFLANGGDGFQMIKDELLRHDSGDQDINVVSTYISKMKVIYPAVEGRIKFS
As to the kind of experiment: Inhibition of ecto-5′-nucleotidase (CD73) activity in CHO-CD73 cells, phosphate colorimetric readout. It counts as cell-based. The following applies: CHO-K1 cells stably transfected with human CD73, 2500 cells per well, 25 μM AMP substrate, 50 minutes incubation at 37° C.; read-out: Potency: CD73 IC50. On the procedure: Inhibition of Ecto-5′-nucleotidase Activity. Compounds were evaluated to determine their ecto-5′-nucleotidase (CD73) inhibitory activity. Briefly, CHO-K1 cells stably transfected with human CD73 were generated by LakePharma (Belmont, CA) using molecular cloning of human CD73 (http://www.uniprot.org/uniprot/P21589) and mammalian transient expression vector (P21589.1). After antibiotic selection in CD OptiCHO cell media (Invitrogen, Catalog #12681-011) containing 5 μg/mL Puromycin and 200 μg/mL Hygromycin B, a suspension pool of CHO-CD73 cells was collected and frozen in 7.5% DMSO in cell media without antibiotics.
On the day of the experiment, one vial of CHO-CD73 cells was thawed and suspended in assay media which consisted of 20 mM HEPES, pH 7.4, 137 mM NaCl, 5.4 mM KCl, 1.3 mM CaCl2), 4.2 mM NaHCO3 and 0.1% glucose. To test the ability of compounds to inhibit CD73 enzymatic activity, 2 μL of 500 μM of compounds dissolved in DMSO (50×) were added to a 96-well polystyrene plate containing 58 μL of assay buffer. Next, 20 μL of CHO-CD73 cells in assay buffer were added to assay plate followed by 20 μL of 125 μM AMP (Adenosine 5′-monophosphate monohydrate) in assay buffer. Final assay conditions consisted of 2500 cells per well in 2% DMSO and 25 μM of AMP substrate. After 50 minutes of incubation (37° C. and 5% CO2) and centrifugation at 225×g for 5 mins, 80 μL of supernatant were transferred to a 96-well Spectra Plate (PerkinElmer, cat #6005640) which was pre-dispensed with 20 μL of PiColorLock Gold colorimetric assay reagents (Thermo, cat #30 300 30). The amount of inorganic phosphate was determined by reading the absorbance at 620 nm on an EnVision Multilabel Plate Reader (PerkinElmer). Enzymatic activity of CD73 was based on the amount of phosphate generated. Percentage of activity was calculated based on DMSO and no cells control wells. IC50 values of compounds were determined by four parameter non-linear regression fitting of percentage of activity in GraphPad Prism software.
Consider `C[C@@H](Nc1nc(Cl)nc2c1cnn2[C@@H]1O[C@H](COP(=O)(O)CP(=O)(O)O)[C@@H](O)[C@H]1O)c1cccc(F)c1`, for which the half-maximal inhibitory concentration (IC50) is less than 100 nM. Then `Nc1nc(F)nc2c1ncn2[C@@H]1O[C@H](COP(=O)(O)CP(=O)(O)O)[C@@H](O)[C@@H]1O`, with 100 to 1000 nM; and `CCc1nc(NCc2ccccc2)c2ncn([C@@H]3O[C@H](COP(=O)(O)CP(=O)(O)O)[C@@H](O)[C@H]3O)c2n1`, with less than 100 nM. For `Cc1nc(NCc2ccccc2)c2ncn([C@@H]3O[C@H](COP(=O)(O)CP(=O)(O)O)[C@@H](O)[C@H]3O)c2n1`, the 50% inhibitory concentration (IC50) is less than 100 nM. Under `C[C@@]1(O)[C@H](O)[C@@H](COP(=O)(O)CP(=O)(O)O)O[C@H]1n1cnc2c(NC3CCCC3)nc(Cl)nc21` stands less than 100 nM; under `Cc1nc(NCc2ccccc2)c2ncn([C@@H]3O[C@H](COP(=O)(O)CP(=O)(O)O)[C@@H](O)[C@@H]3F)c2n1`, less than 100 nM; under `CN(Cc1ccccc1)c1nc(Cl)nc2c1cnn2[C@@H]1O[C@H](COP(=O)(O)CP(=O)(O)O)[C@@H](O)[C@H]1O`, less than 100 nM. Then `O=P(O)(O)CP(=O)(O)OC[C@H]1O[C@@H](n2cnc3c(NCc4ccccc4)nc(C(F)(F)F)nc32)[C@@H](F)[C@@H]1O`, with less than 100 nM. For the molecule `CN(c1nc(Cl)nc2c1ncn2[C@@H]1O[C@H](COP(=O)(O)CP(=O)(O)O)[C@@H](O)[C@H]1O)C1CCCC1`, the IC50 was less than 100 nM. Then `O=P(O)(O)CP(=O)(O)OC[C@H]1O[C@@H](n2cnc3c(NCc4ccc(C(F)(F)F)cc4)ncnc32)[C@H](O)[C@@H]1O`, with less than 100 nM; and `COc1nc(NCc2ccccc2)c2ncn([C@@H]3O[C@H](COP(=O)(O)CP(=O)(O)O)[C@@H](O)[C@H]3O)c2n1`, with less than 100 nM; and `CN(Cc1ccccc1)c1nc(Cl)nc2c1ncn2[C@@H]1O[C@H](COP(=O)(O)CP(=O)(O)O)[C@@H](O)[C@@H]1F`, with less than 100 nM. Then `CC(C)S(=O)(=O)c1nc(NCc2ccccc2)c2ncn([C@@H]3O[C@H](COP(=O)(O)CP(=O)(O)O)[C@@H](O)[C@H]3O)c2n1`, with 100 to 1000 nM; and `CC(C)Nc1nc(Cl)nc2c1ncn2[C@@H]1O[C@H](COP(=O)(O)CP(=O)(O)O)[C@@H](O)[C@@H]1F`, with less than 100 nM.

As to `CC(C)OC(=O)OCOP(=O)(O)CP(=O)(OCOC(=O)OC(C)C)OC[C@H]1O[C@@H](n2ncc3c(NC4CCCC4)nc(Cl)nc32)[C@H](O)[C@@H]1O` (some centres unmarked), the concentration for half-maximal inhibition (IC50) was more than 1000 nM. As to `C[C@@H](Nc1nc(Cl)nc2c1cnn2[C@@H]1O[C@H](COP(=O)(O)CP(=O)(O)O)[C@@H](O)[C@@H]1F)c1cccc(F)c1`, the IC50 was less than 100 nM.

Turning to `C[C@H](Nc1cc(Cl)nc2c1cnn2[C@@H]1O[C@H](COP(=O)(O)CP(=O)(O)O)[C@@H](O)[C@H]1O)c1ccc(F)cc1`, the half-inhibitory concentration (IC50) was less than 100 nM.

`CN(c1nc(Cl)cc2c1ncn2[C@@H]1O[C@H](COP(=O)(O)CP(=O)(O)O)[C@@H](O)[C@@H]1F)C1CCCC1`: the IC50 was less than 100 nM. Then `O=P(O)(O)CP(=O)(O)OC[C@H]1O[C@@H](n2ncc3c(NCc4ccc(Cl)cc4)nc(Cl)nc32)[C@H](O)[C@@H]1O`, with less than 100 nM; and `O=P(O)(O)CP(=O)(O)OC[C@H]1O[C@@H](n2cnc3c(N4CCCC4)nc(Cl)nc32)[C@@H](F)[C@@H]1O`, with less than 100 nM; and `O=P(O)(O)CP(=O)(O)OC[C@H]1O[C@@H](n2cnc3c(NC4CCCC4)nc(Cl)nc32)[C@@H](F)[C@@H]1O`, with less than 100 nM. Under `COP(=O)(O)CP(=O)(OC)OC[C@H]1O[C@@H](n2cnc3c(N(C)C4CCCC4)nc(Cl)nc32)[C@@H](F)[C@@H]1O` (some centres unmarked) stands more than 1000 nM; under `C[C@@H](Nc1nc(Cl)nc2c1ncn2[C@@H]1O[C@H](COP(=O)(O)CP(=O)(O)O)[C@@H](O)[C@@H]1F)c1ccccc1`, less than 100 nM. Then `C[C@@H](Nc1nc(Cl)nc2c1cnn2[C@@H]1O[C@H](COP(=O)(O)CP(=O)(O)O)[C@@H](O)[C@H]1O)c1ccccc1F`, with less than 100 nM; and `Nc1nc(C(O)C2CC2)nc2c1ncn2[C@@H]1O[C@H](COP(=O)(O)CP(=O)(O)O)[C@@H](O)[C@@H]1F` (some centres unmarked), with less than 100 nM. Take `Cc1ccc(CNc2ncnc3c2ncn3[C@@H]2O[C@H](COP(=O)(O)CP(=O)(O)O)[C@@H](O)[C@H]2O)cc1`: the IC50 is less than 100 nM. Under `CN(Cc1ccccc1Cl)c1nc(Cl)nc2c1cnn2[C@@H]1O[C@H](COP(=O)(O)CP(=O)(O)O)[C@@H](O)[C@H]1O` stands less than 100 nM. Under `O=P(O)(O)CP(=O)(O)OC[C@H]1O[C@@H](n2cnc3c(N4CCCCC4)nc(Cl)nc32)[C@@H](F)[C@@H]1O` stands less than 100 nM; under `O=P(O)(O)CP(=O)(O)OC[C@H]1O[C@@H](n2cnc3c(NCc4ccc(F)cc4)nc(Cl)nc32)[C@@H](F)[C@@H]1O`, less than 100 nM.

`CC(C)Sc1nc(NCc2ccccc2)c2ncn([C@@H]3O[C@H](COP(=O)(O)CP(=O)(O)O)[C@@H](O)[C@H]3O)c2n1`: the IC50 is less than 100 nM. On to `O=P(O)(O)CP(=O)(O)OC[C@H]1O[C@@H](n2cnc3c(N[C@H]4CCOC4)nc(Cl)nc32)[C@@H](F)[C@@H]1O`, for which the IC50 was less than 100 nM.

As for `CC(C)OC(=O)OCOP(=O)(O)CP(=O)(OCOC(=O)OC(C)C)OC[C@H]1O[C@@H](n2ncc3c(N[C@@H](C)c4ccccc4)nc(Cl)nc32)[C@H](O)[C@@H]1O` (some centres unmarked), the IC50 is more than 1000 nM. Then `CN(c1nc(Cl)nc2c1ncn2[C@@H]1O[C@H](COP(=O)(CP(=O)(Oc2ccccc2)Oc2ccccc2)Oc2ccccc2)[C@@H](O)[C@H]1O)C1CCCC1` (some centres unmarked), with more than 1000 nM. Then `COC(=O)c1ccccc1OP(=O)(CP(=O)(Oc1ccccc1C(=O)OC)Oc1ccccc1C(=O)OC)OC[C@H]1O[C@@H](n2cnc3c(N(C)C4CCCC4)nc(Cl)nc32)[C@H](O)[C@@H]1O` (some centres unmarked), with more than 1000 nM; and `O=P(O)(O)CP(=O)(O)OC[C@H]1O[C@@H](n2cnc3c(NCc4ccccc4)nc(N4CCCC4)nc32)[C@H](O)[C@@H]1O`, with less than 100 nM. Then `C[C@H](Nc1nc(Cl)nc2c1ccn2[C@@H]1O[C@H](COP(=O)(O)CP(=O)(O)O)[C@@H](O)[C@@H]1F)c1cccc(F)c1`, with less than 100 nM.

On to `Nc1nc(F)nc2c1ncn2[C@@H]1O[C@H](COP(=O)(O)CP(=O)(O)O)[C@@H](O)[C@H]1O`, for which the half-maximal inhibitory concentration (IC50) is less than 100 nM. Under `O=P(O)(O)CP(=O)(O)OC[C@H]1O[C@@H](n2ncc3c(N[C@H](c4ccccc4)C(F)(F)F)nc(Cl)nc32)[C@H](O)[C@@H]1O` stands less than 100 nM; under `O=P(O)(O)CP(=O)(O)OC[C@H]1O[C@@H](n2cnc3c(NC4CCOCC4)nc(Cl)nc32)[C@@H](F)[C@@H]1O`, less than 100 nM. Under `C[C@@H](Nc1nc(Cl)nc2c1ccn2[C@@H]1O[C@H](COP(=O)(O)CP(=O)(O)O)[C@@H](O)[C@@H]1F)c1ccccc1` stands less than 100 nM. Under `CNc1nc(Cl)nc2c1cnn2[C@@H]1O[C@H](COP(=O)(O)CP(=O)(O)O)[C@@H](O)[C@H]1O` stands less than 100 nM; under `C[C@H](Nc1nc(Cl)nc2c1ccn2[C@@H]1O[C@H](COP(=O)(O)CP(=O)(O)O)[C@@H](O)[C@H]1O)c1ccc(F)cc1`, less than 100 nM. Take `CN(c1nc(Cl)nc2c1ncn2[C@@H]1O[C@H](COP(=O)(O)CP(=O)(O)O)[C@@H](O)[C@@H]1F)C1CCCC1`: the half-maximal inhibitory concentration (IC50) is less than 100 nM.

In the case of `O=P(O)(O)CP(=O)(O)OC[C@H]1O[C@@H](n2ncc3c(NCc4ccccc4)nc(Cl)nc32)[C@H](O)[C@@H]1O`, the half-maximal inhibitory concentration (IC50) was less than 100 nM.

The term IC50 denotes the concentration that inhibits the measured activity by half.
